Test results: the supplement of paper PMC10307832

Legend:
Assay in all cases: relative viability (nuclei count vs DMSO), 5 days (fraction); higher = more cells survive
HCC-78 = tested on: HCC-78
Procedure, shortened: (§1)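 Values are medians from duplicate plates. Each reflects relative viability, defined as the nuclei count of treated wells over that of vehicle wells. Lung cancer cell lines in 1536-well plates were pin-tool dosed one day after seeding with one drug alone or with a fixed anchor-drug dose plus five library-drug doses (not always all listed) in √10 steps, then fixed, stained and imaged at 4× after 5 days.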

NCI-H1650 = tested on: NCI-H1650
Procedure, shortened: as §1

NCI-H727 = tested on: NCI-H727
Procedure, shortened: as §1

NCI-H1734 = tested on: NCI-H1734
Procedure, shortened: as §1

LU99A = tested on: LU99A
Procedure, shortened: as §1

RERF-LC-KJ = tested on: RERF-LC-KJ
Procedure, shortened: as §1

NCI-H2126 = tested on: NCI-H2126
Procedure, shortened: as §1

LCLC-97TM1 = tested on: LCLC-97TM1
Procedure, shortened: as §1

EMC-BAC-2 = tested on: EMC-BAC-2
Procedure, shortened: as §1

NCI-H2087 = tested on: NCI-H2087
Procedure, shortened: as §1

NCI-H1944 = tested on: NCI-H1944
Procedure, shortened: as §1

COR-L 105 = tested on: COR-L 105
Procedure, shortened: as §1

EKVX = tested on: EKVX
Procedure, shortened: as §1

EPLC-272H = tested on: EPLC-272H
Procedure, shortened: as §1

LK-2 = tested on: LK-2
Procedure, shortened: as §1

SW 1573 = tested on: SW 1573
Procedure, shortened: as §1

LOU-NH91 = tested on: LOU-NH91
Procedure, shortened: as §1

BEN = tested on: BEN
Procedure, shortened: as §1

NCI-H1792 = tested on: NCI-H1792
Procedure, shortened: as §1

HCC-827 = tested on: HCC-827
Procedure, shortened: as §1

SK-MES-1 = tested on: SK-MES-1
Procedure, shortened: as §1

Question: What does the source list for `CCCCCCCCCCCC1=C(O)C(=O)C=C(O)C1=O` [Embelin] + CC1(C)CCC(c2ccc(Cl)cc2)=C(CN2CCN(c3ccc(C(=O)NS(=O)(=O)c4ccc(N[C@H](CCN5CCOCC5)CSc5ccccc5)c(S(=O)(=O)C(F)(F)F)c4)cc3)CC2)C1 [Navitoclax] (partner 0.5 µM)?
Answer: relative viability (HCC-78; first compound 0.08 µM): 0.797; relative viability (HCC-78; first compound 0.8 µM): 0.931; relative viability (HCC-78; first compound 2.53 µM): 0.863; relative viability (HCC-78; first compound 8 µM): 0.762; relative viability (NCI-H1650; first compound 0.08 µM): 1.27; relative viability (NCI-H1650; first compound 0.8 µM): 1.37; relative viability (NCI-H1650; first compound 2.53 µM): 1.57; relative viability (NCI-H1650; first compound 8 µM): 1.36; relative viability (NCI-H727; first compound 0.08 µM): 0.4; relative viability (NCI-H727; first compound 0.8 µM): 0.537; relative viability (NCI-H727; first compound 2.53 µM): 0.435; relative viability (NCI-H727; first compound 8 µM): 0.392; relative viability (NCI-H1734; first compound 0.08 µM): 0.847; relative viability (NCI-H1734; first compound 0.8 µM): 1.09; relative viability (NCI-H1734; first compound 2.53 µM): 1.23; relative viability (NCI-H1734; first compound 8 µM): 0.894; relative viability (LU99A; first compound 0.08 µM): 0.993; relative viability (LU99A; first compound 0.8 µM): 0.943; relative viability (LU99A; first compound 2.53 µM): 0.864; relative viability (LU99A; first compound 8 µM): 0.755; relative viability (RERF-LC-KJ; first compound 0.08 µM): 0.963; relative viability (RERF-LC-KJ; first compound 0.8 µM): 1.14; relative viability (RERF-LC-KJ; first compound 2.53 µM): 0.808; relative viability (RERF-LC-KJ; first compound 8 µM): 0.821; relative viability (NCI-H2126; first compound 0.08 µM): 0.879; relative viability (NCI-H2126; first compound 0.8 µM): 0.801; relative viability (NCI-H2126; first compound 2.53 µM): 0.848; relative viability (NCI-H2126; first compound 8 µM): 0.869; relative viability (LCLC-97TM1; first compound 0.8 µM): 0.46; relative viability (LCLC-97TM1; first compound 2.53 µM): 0.499; relative viability (LCLC-97TM1; first compound 8 µM): 0.399; relative viability (EMC-BAC-2; first compound 0.08 µM): 1.17; relative viability (EMC-BAC-2; first compound 0.8 µM): 1.17; relative viability (EMC-BAC-2; first compound 2.53 µM): 1.33; relative viability (EMC-BAC-2; first compound 8 µM): 1.3; relative viability (NCI-H2087; first compound 0.08 µM): 0.892; relative viability (NCI-H2087; first compound 0.8 µM): 1.17; relative viability (NCI-H2087; first compound 2.53 µM): 0.93; relative viability (NCI-H2087; first compound 8 µM): 0.989; relative viability (NCI-H1944; first compound 0.08 µM): 1.01; relative viability (NCI-H1944; first compound 0.8 µM): 1.11; relative viability (NCI-H1944; first compound 2.53 µM): 1.06; relative viability (NCI-H1944; first compound 8 µM): 0.941; relative viability (COR-L 105; first compound 0.08 µM): 0.758; relative viability (COR-L 105; first compound 0.8 µM): 1.04; relative viability (COR-L 105; first compound 2.53 µM): 0.748; relative viability (COR-L 105; first compound 8 µM): 0.795; relative viability (EKVX; first compound 0.08 µM): 0.913; relative viability (EKVX; first compound 0.8 µM): 0.895; relative viability (EKVX; first compound 2.53 µM): 0.917; relative viability (EKVX; first compound 8 µM): 0.938; relative viability (EPLC-272H; first compound 0.08 µM): 1.07; relative viability (EPLC-272H; first compound 0.8 µM): 1.34; relative viability (EPLC-272H; first compound 2.53 µM): 1.21; relative viability (EPLC-272H; first compound 8 µM): 1.11; relative viability (LK-2; first compound 0.08 µM): 0.904; relative viability (LK-2; first compound 0.8 µM): 1.2; relative viability (LK-2; first compound 2.53 µM): 1.26; relative viability (LK-2; first compound 8 µM): 0.809; relative viability (SW 1573; first compound 0.08 µM): 0.973; relative viability (SW 1573; first compound 0.8 µM): 0.976; relative viability (SW 1573; first compound 2.53 µM): 1.02; relative viability (SW 1573; first compound 8 µM): 1.02; relative viability (LOU-NH91; first compound 0.08 µM): 0.77; relative viability (LOU-NH91; first compound 0.8 µM): 1.02; relative viability (LOU-NH91; first compound 2.53 µM): 0.837; relative viability (LOU-NH91; first compound 8 µM): 0.637; relative viability (BEN; first compound 0.08 µM): 0.0728; relative viability (BEN; first compound 0.8 µM): 0.0709; relative viability (BEN; first compound 2.53 µM): 0.0714; relative viability (BEN; first compound 8 µM): 0.0735; relative viability (NCI-H1792; first compound 0.08 µM): 0.593; relative viability (NCI-H1792; first compound 0.8 µM): 0.649; relative viability (NCI-H1792; first compound 2.53 µM): 0.892; relative viability (NCI-H1792; first compound 8 µM): 0.669; relative viability (HCC-827; first compound 0.08 µM): 1; relative viability (HCC-827; first compound 0.8 µM): 1.09; relative viability (HCC-827; first compound 2.53 µM): 1.03; relative viability (HCC-827; first compound 8 µM): 1.04; relative viability (SK-MES-1; first compound 0.08 µM): 1.23; relative viability (SK-MES-1; first compound 0.8 µM): 1.32; relative viability (SK-MES-1; first compound 2.53 µM): 1.25; relative viability (SK-MES-1; first compound 8 µM): 1.43
